Laboratory results from US20160177395A1, “BIOMARKERS FOR THE PREDICTION OF RENAL INJURY” (priority 2007, published 2016).
Several values for one entry are separate records, joined by “and”; a condition that tells them apart may be missing. Identical values can stand only once.

Legend:
[1] = tested on: kidney tissues of treated or untreated rats; test: Real-time qRT-PCR of signature amplicons, validation stage, labeled and un-labeled samples (Table 23); details: for H31883_DB71_seg13 normalized qRT-PCR result / MUSCYCG1R_DB81_seg19-20 normalized qRT-PCR result / W41270_DB81_seg11 normalized qRT-PCR result: un-labeled sample, one line per animal; for AI045075_DB71_seg6 normalized qRT-PCR expression (Interferon stimulated exonuclease 20 (ISG20) transcript) / H31883_DB71_seg13 normalized qRT-PCR expression (Cyclin-G1 (CCNG1) transcript) / MUSCYCG1R_DB81_seg19-20 normalized qRT-PCR expression / W41270_DB81_seg11 normalized qRT-PCR expression (tumor necrosis factor receptor superfamily, member 12a transcript) / W64472_DB81_seg2 normalized qRT-PCR expression (Interferon stimulated exonuclease 20 (ISG20) transcript) / W83813_DB81_seg27 normalized qRT-PCR expression: un-labeled samples, kidney of individual male/female rats
Excerpt: New primers were designed for part of the transcripts, and new conditions for several qRT-PCR reactions were used, as described below.
The measurements were normalized in two steps. First—according to the house-keeping-genes normalization factor, and second—each plate was normalized according to ratio of the intensity measurements from samples appearing in it and in the shuffled (normalization) plate (Table 25 provides the plates details and the section “Inter-Plate Normalization” provides details of the normalization process). The normalized values were further scaled by a factor, for ease of viewing.
RT was prepared and qRT-PCR performed and analyzed as described hereinabove. qRT-PCR was performed for the four genes comprising the signature of the discovery stage described in Table 13. Two amplicons were tested for each gene—one representing the wild-type transcript, and another representing an alternative splice variant. Each amplicon was measured using the labeled samples described in Table 9 herein, as well as the un-labeled samples. Samples from both groups (labeled and un-labeled) were tested in seven 96 well plates as described in Table 25. In order to correct possible run to run variations, the following controls were added: 1. several samples were repeated in all 96 wells plates; 2. control shuffled plate was designed which combined samples from all seven test plates.
To account for possible differences of qRT-PCR measurements between the different plates due to experimental artifacts, a normalization plate was planned. This plate, designated hereinabove ‘shuffled plate’, contained samples from all other plates. Real Time PCR was performed on this plate using the primers appropriate for all candidates in tables 26 and 27. For each other plate (plates 1-7 above) and each amplicon, the samples appearing also in the shuffled plate were examined—the ratio between the transcript abundance as measured in the plate to the abundance as measured in the shuffled plate was calculated, outliers were manually removed, and the geometric mean of the left ratios was taken as an additional multiplicative normalization factor for the plate and amplicon.

rat kidney samples = test: Random-Forest classifiers applied to un-labeled samples of T1, T2, T3 and control (Table 30); details: for Average 'Toxic' (%): average of the two classifiers
Experimental: To validate the optimal signature for classification of renal toxicity of a compound after five days of application a test of the signatory polynucleotide/gene expression in rat kidney samples consisting of tissues from rats exposed to three drug compounds and a single control group was carried out (Teva Pharmaceutical Industries, IL).
The two optimal classifiers (signatures described in Tables 26 and 27) were applied to the qRT-PCR reads of the un-labeled samples and their calls was used to assign a level of toxicity to each group and, eventually, each compound.
The classifiers described in Tables 26 and 27, were used for testing the un-labeled samples. Both classifiers were applied to the measurements of each sample, used the 30% bound from above, and the number of samples pass that bound in each group were summarized.

kidney = test: Renal histopathology of rats treated with T1, T2, T3; format: in vivo, rat; details: rats
Experimental: Each group consisted of 6 male and 6 female rats. The additional groups consisted of 6 males and 6 female rats treated with control compound for a single day and for five days, as described in Table 24.
T2 “no observed effect level” (NOEL, i.e., the maximal dose at which no toxic effect is visible) is 15 mg/kg.
At autopsy, both kidneys of each animal were removed and each kidney was cross sectioned. Half of each kidney was sent to RNA extraction and analysis.

[2] = Ds1, Day1, oral gavage, female rat kidney
[3] = Ds1, Day1, oral gavage, male rat kidney
[4] = Ds1, Day5, oral gavage, female rat kidney
[5] = Ds1, Day5, oral gavage, male rat kidney
[6] = Ds2, Day1, oral gavage, female rat kidney
[7] = Ds2, Day1, oral gavage, male rat kidney
[8] = Ds2, Day5, oral gavage, female rat kidney
[9] = Ds2, Day5, oral gavage, male rat kidney

**Q.** Which results are given for C#CCN(C)c1nc2ccc(OC(F)(F)F)cc2s1 [T1]?
**A.** H31883_DB71_seg13 normalized qRT-PCR result [1, 2]: 0.825 and 0.917 and 1.186; MUSCYCG1R_DB81_seg19-20 normalized qRT-PCR result [1, 2]: 0.49 and 0.762 and 0.981; W41270_DB81_seg11 normalized qRT-PCR result [1, 2]: 0.752 and 0.548 and 1.047; H31883_DB71_seg13 normalized qRT-PCR result [1, 3]: 0.155 and 0.178 and 0.143 and 0.169 and 0.245; MUSCYCG1R_DB81_seg19-20 normalized qRT-PCR result [1, 3]: 0.574 and 1.13 and 0.805 and 0.4 and 1.416; W41270_DB81_seg11 normalized qRT-PCR result [1, 3]: 0.778 and 1.501 and 0.981 and 0.439 and 1.502; H31883_DB71_seg13 normalized qRT-PCR result [1, 4]: 1.511 and 1.328 and 1.593 and 0.893; MUSCYCG1R_DB81_seg19-20 normalized qRT-PCR result [1, 4]: 1.162 and 1.367 and 1.089 and 0.831; W41270_DB81_seg11 normalized qRT-PCR result [1, 4]: 0.745 and 0.945 and 0.938 and 0.606; H31883_DB71_seg13 normalized qRT-PCR result [1, 5]: 0.125 and 0.208 and 0.165 and 0.207 and 0.2 and 0.323; MUSCYCG1R_DB81_seg19-20 normalized qRT-PCR result [1, 5]: 2.031 and 0.904 and 0.937 and 0.783 and 1.364 and 0.717; W41270_DB81_seg11 normalized qRT-PCR result [1, 5]: 1.835 and 0.991 and 0.687 and 0.902 and 1.35 and 0.684; H31883_DB71_seg13 normalized qRT-PCR result [1, 6]: 0.861 and 0.549 and 0.725 and 1.045; MUSCYCG1R_DB81_seg19-20 normalized qRT-PCR result [1, 6]: 1.067 and 0.514 and 0.639 and 0.965; W41270_DB81_seg11 normalized qRT-PCR result [1, 6]: 0.898 and 0.415 and 0.502 and 1.028; H31883_DB71_seg13 normalized qRT-PCR result [1, 7]: 0.889 and 0.656 and 0.473; MUSCYCG1R_DB81_seg19-20 normalized qRT-PCR result [1, 7]: 0.932 and 0.544 and 0.541; W41270_DB81_seg11 normalized qRT-PCR result [1, 7]: 1.326 and 0.785 and 0.592; H31883_DB71_seg13 normalized qRT-PCR result [1, 8]: 1.025 and 0.454 and 1.074 and 1.674; MUSCYCG1R_DB81_seg19-20 normalized qRT-PCR result [1, 8]: 0.935 and 1.478 and 0.868 and 1.487; W41270_DB81_seg11 normalized qRT-PCR result [1, 8]: 0.989 and 1.223 and 0.652 and 1.056; H31883_DB71_seg13 normalized qRT-PCR result [1, 9]: 0.654 and 1.077 and 1.236 and 0.596; MUSCYCG1R_DB81_seg19-20 normalized qRT-PCR result [1, 9]: 0.539 and 1.161 and 1.793 and 0.73; W41270_DB81_seg11 normalized qRT-PCR result [1, 9]: 0.527 and 1.181 and 2.203 and 0.784; AI045075_DB71_seg6 normalized qRT-PCR expression (Interferon stimulated exonuclease 20 (ISG20) transcript) ([1]; dose Ds1, Day1, oral gavage): 0.843 and 0.636 and 0.572; H31883_DB71_seg13 normalized qRT-PCR expression (Cyclin-G1 (CCNG1) transcript) ([1]; dose Ds1, Day1, oral gavage): 0.913 and 0.757 and 0.615 and 0.73 and 0.524 and 0.783 and 0.912 and 0.87 and 0.957 and 0.923 and 0.706; MUSCYCG1R_DB81_seg19-20 normalized qRT-PCR expression ([1]; dose Ds1, Day1, oral gavage): 1.49 and 0.291 and 0.271 and 0.376 and 0.135 and 1.436 and 1.195 and 0.249 and 1.891 and 0.299 and 2.31; W41270_DB81_seg11 normalized qRT-PCR expression (tumor necrosis factor receptor superfamily, member 12a transcript) ([1]; dose Ds1, Day1, oral gavage): 0.66 and 0.181 and 0.396 and 0.198 and 0.231 and 0.758 and 0.646 and 0.47 and 1.082 and 0.734 and 0.566; W64472_DB81_seg2 normalized qRT-PCR expression (Interferon stimulated exonuclease 20 (ISG20) transcript) ([1]; dose Ds1, Day1, oral gavage): 1.118 and 0.683 and 0.49; W83813_DB81_seg27 normalized qRT-PCR expression ([1]; dose Ds1, Day1, oral gavage): 0.216 and 0.843 and 0.926; AI045075_DB71_seg6 normalized qRT-PCR expression (Interferon stimulated exonuclease 20 (ISG20) transcript) ([1]; dose Ds1, Day5, oral gavage): 0.692 and 0.627; H31883_DB71_seg13 normalized qRT-PCR expression (Cyclin-G1 (CCNG1) transcript) ([1]; dose Ds1, Day5, oral gavage): 1.373 and 1.353 and 1.266 and 1.783 and 1.477 and 1.097 and 2.104 and 1.249 and 1.458 and 1.23 and 1.01 and 1.013; MUSCYCG1R_DB81_seg19-20 normalized qRT-PCR expression ([1]; dose Ds1, Day5, oral gavage): 1.598 and 0.183 and 0.149 and 0.214 and 3.532 and 0.296 and 3.397 and 0.186 and 1.317 and 0.189 and 0.816 and 1.499; W41270_DB81_seg11 normalized qRT-PCR expression (tumor necrosis factor receptor superfamily, member 12a transcript) ([1]; dose Ds1, Day5, oral gavage): 1.527 and 0.473 and 0.702 and 0.356 and 1.325 and 0.657 (2×) and 1.014 and 1.11 and 1.337 and 0.638 and 0.703; W64472_DB81_seg2 normalized qRT-PCR expression (Interferon stimulated exonuclease 20 (ISG20) transcript) ([1]; dose Ds1, Day5, oral gavage): 0.571 and 0.528; W83813_DB81_seg27 normalized qRT-PCR expression ([1]; dose Ds1, Day5, oral gavage): 0.795 and 0.885; AI045075_DB71_seg6 normalized qRT-PCR expression (Interferon stimulated exonuclease 20 (ISG20) transcript) ([1]; dose Ds2, Day1, oral gavage): 0.483 and 0.759 and 0.448 and 0.547 and 0.396; H31883_DB71_seg13 normalized qRT-PCR expression (Cyclin-G1 (CCNG1) transcript) ([1]; dose Ds2, Day1, oral gavage): 0.517 (2×) and 0.906 and 0.849 and 0.696 and 0.611 and 0.707 and 0.867 and 1.153 and 1.19 and 0.623 and 0.798; MUSCYCG1R_DB81_seg19-20 normalized qRT-PCR expression ([1]; dose Ds2, Day1, oral gavage): 0.385 and 0.76 and 0.739 and 0.478 and 0.738 and 0.652 and 0.654 and 1.261 and 0.609 and 0.835 and 0.696 and 0.804; W41270_DB81_seg11 normalized qRT-PCR expression (tumor necrosis factor receptor superfamily, member 12a transcript) ([1]; dose Ds2, Day1, oral gavage): 0.78 and 0.755 and 0.885 and 0.462 and 0.413 and 0.762 and 0.644 and 1.034 and 1.265 and 0.653 and 0.383 and 0.472; W64472_DB81_seg2 normalized qRT-PCR expression (Interferon stimulated exonuclease 20 (ISG20) transcript) ([1]; dose Ds2, Day1, oral gavage): 0.944 and 1.213 and 0.661 and 0.559 and 0.462; W83813_DB81_seg27 normalized qRT-PCR expression ([1]; dose Ds2, Day1, oral gavage): 1.186 and 0.984 and 0.34 and 0.689 and 0.56; AI045075_DB71_seg6 normalized qRT-PCR expression (Interferon stimulated exonuclease 20 (ISG20) transcript) ([1]; dose Ds2, Day5, oral gavage): 0.797 and 0.766 and 1.01 and 0.629; H31883_DB71_seg13 normalized qRT-PCR expression (Cyclin-G1 (CCNG1) transcript) ([1]; dose Ds2, Day5, oral gavage): 1.36 and 1.037 and 1.84 and 1.348 and 2.423 and 1.13 and 2.468 and 1.684 and 1.672 and 1.663 and 1.554 and 0.996; MUSCYCG1R_DB81_seg19-20 normalized qRT-PCR expression ([1]; dose Ds2, Day5, oral gavage): 0.359 and 0.871 and 0.852 and 0.761 and 1.197 and 0.631 and 1.238 and 0.528 and 1.583 and 1.018 and 0.919 and 0.756; W41270_DB81_seg11 normalized qRT-PCR expression (tumor necrosis factor receptor superfamily, member 12a transcript) ([1]; dose Ds2, Day5, oral gavage): 0.009 and 0.391 and 0.964 and 0.713 and 1.825 and 0.453 and 1.254 and 1.111 and 1.126 and 1.164 and 1 and 0.71; W64472_DB81_seg2 normalized qRT-PCR expression (Interferon stimulated exonuclease 20 (ISG20) transcript) ([1]; dose Ds2, Day5, oral gavage): 0.803 and 0.863 and 0.982 and 0.554; W83813_DB81_seg27 normalized qRT-PCR expression ([1]; dose Ds2, Day5, oral gavage): 1.092 and 1.125 and 0.885 and 0.55; Average 'Toxic' (%) (rat kidney samples; Ds1 Day1 Female): 0%; Average 'Toxic' (%) (rat kidney samples; Ds1 Day1 Male): 17%; Average 'Toxic' (%) (rat kidney samples; Ds1 Day5 Female): 50%; Average 'Toxic' (%) (rat kidney samples; Ds1 Day5 Male): 50%; Average 'Toxic' (%) (rat kidney samples; Ds2 Day1 Female): 0%; Average 'Toxic' (%) (rat kidney samples; Ds2 Day1 Male): 0%; Average 'Toxic' (%) (rat kidney samples; Ds2 Day5 Female): 66.5%; Average 'Toxic' (%) (rat kidney samples; Ds2 Day5 Male): 33%; Toxicity conclusion from classifier calls (rat kidney samples; signatures of Tables 26 and 27, 30% bound): nephrotoxic agents; Time after which visible pathological damage was seen (kidney): 28 days; Renal damage (kidney; dose and duration as in the value): renal damage, mainly in females, after 28 days of treatment at the 30 mg/kg dose
